Data reported in US20260102484A1, “ADJUVANTS FOR ENHANCING THE IMMUNE RESPONSE” (priority 2022, published 2026).

How the values were obtained:
[1] = system: antigen-specific (RBD peptide #9) Proliferative T cell response; design: species or system Mice; conditions: mouse, in vivo
[2] = system: cytokine response to RBD Peptide #9 (IL6, IFNg, TNF, IL17, IL 10); design: species or system Mice; conditions: mouse, in vivo
[3] = system: myeloid (GR1+CD11b+) cells and lymphoid (CD8+) cells; experiment: FACS analysis of myeloid and lymphoid cells at higher DPCA doses; assay type: in vivo, mice
Method: To explore what is happening at higher DPCA doses and why they may be inhibitory, we tested the effects of different concentrations of DPCA on myeloid (GR1+CD11b+) cells and lymphoid (CD8+) cells. […] Also, the number of GR1+CD11b+myeloid cells is much higher. Within this population of myeloid cells are cells that can suppress T cells.
Additionally, cells were immunized with 50 ug of DPCA and compared to an untreated control. The number of cell in each was determined by FACS analysis. […] (See upper panels showing scatter plots with an increased number of cells in treated cells). An analysis of myeloid cell markers GR1 and CD11b was determined in the control and DPCA treated cells. […] (See lower panels)

[4] = system: Naïve, central memory, and effector T cells (CD4 and CD8); experiment: Numbers of naive, central memory and effector memory T cells from lymph nodes and spleen; assay type: in vivo; conditions: peptide 9 and 10 ug or 25 ug of DPCA, FIG. 6
Method: Next, three populations of T cells (Naïve, central memory, and effector T cells) from lymph nodes and spleens were treated with peptide 9 and 10 ug of DPCA or 25 ug of DPCA. An untreated control group and a control group treated with PBS were also tested.

splenic T cells = experiment: Recall response of splenic T cells to peptide #5-palmitic acid, CTFR proliferation dye and FACS; assay type: in vivo, Mice; conditions: immunized subcutaneously with peptide #5-palmitic acid CFA + 10 ug; 14 days later; FIG. 7
Method: Mice were now immunized with peptide 5 and T cells analyzed for proliferation and by FACS analysis. (FIG. 7) Mice were immunized subcutaneously with peptide #5-palmitic acid CFA mixture with and without 10 ug of 1,4-DPCA. 14 days later, splenic T cells were isolated and co-cultured with irradiated feeders in a ratio of 400k:100k to assess recall responses to peptide #5-palmitic acid. T cells from unimmunized mice were used as control. Only T cells were stained with CTFR proliferation dye in order to ensure detection of specific T cell responses.
In upper FIG. 7 is the FACS flow cytometry plot, where the labelled cells are T cells. […] Below this, is the analyzed proliferation data, where the yellow line is immunized+10 ug of DPCA was given to mice, the grey line is immunized only, the orange line is control, unimmunized but stimulated in culture, and the blue line is control, unstimulated in culture.

In the case of `O=C(O)c1c[nH]c2c(ccc3cccnc32)c1=O` [1,4-DPCA, 1,4-dihydrophenonthrolin-4-one-3-carboxylic acid], the “antigen-specific (RBD peptide #9) Proliferative T cell response” value [1] is reported as “enhances”, the IFNg response [2] is reported as “most dramatically affected” and the “cytokine response (IL6, IFNg, TNF, IL17, and IL 10)” value [2] is reported as “dose-dependent”. The “number of large cells (FACS scatter plots)” value ([3]; 50 ug of DPCA vs untreated control, FIG. 5) was “increase number of large cells”, the “myeloid cell markers GR1 and CD11b” value ([3]; DPCA treated vs untreated control, FIG. 5 lower panels) was “large population of myeloid cells” and the “relationship between lymphoid and myeloid cells” value ([3]; higher DPCA dosage, FIG. 4) was “Inverse relationship”. The “number of CD8+T cells” value ([3]; higher DPCA doses, FIG. 4) was “reduced”, the “number of GR1+CD11b+myeloid cells” value ([3]; higher DPCA doses, FIG. 4) was “much higher” and the “numbers of memory cells (CD4 and CD8)” value [4] was “increased numbers”. The “numbers of naïve cells (CD4 and CD8)” value [4] was “lower numbers” and the “T cell proliferation (FACS flow cytometry plot)” value (splenic T cells) was “increased proliferation”.
